Measured values reported in ChEMBL document CHEMBL1201862, “PubChem BioAssay data set” (2004).
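Tested at 5 concentrations; 48 h exposure; 96-well plates; endpoints linearly interpolated, else capped at highest concentration. GI50 marks 50% less growth.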 The source made the active and inactive calls. Cut-off read from the data, not from the text of the source: active = GI50 up to about 1.1 µM and inactive = higher.

What was measured:
Assay in all cases: NCI-60 cell line screen, 48 h
DMS-114 = system: DMS-114
DMS-273 = system: DMS-273
M19-MEL = system: M19-MEL
RXF 631 = system: RXF 631
HOP-18 = system: HOP-18
XF498 = system: XF498
Hs-578T = system: Hs-578T
BT-549 = system: BT-549
T47D = system: T47D

| SMILES | GI50 (DMS-114) | GI50 (DMS-273) | GI50 (M19-MEL) | GI50 (RXF 631) | GI50 (HOP-18) | GI50 (XF498) | GI50 (Hs-578T) | GI50 (BT-549) | GI50 (T47D) |
| --- | --- | --- | --- | --- | --- | --- | --- | --- | --- |
| O=C1CCC2CCOc3ccc(O)c1c32 (centres undefined) | > 100 µM (inactive) | > 100 µM (inactive) | > 100 µM (inactive) | > 100 µM (inactive) | – | – | – | – | – |
| N#CC1C(=O)NC(=O)C1=O (centres undefined) | > 100 µM (inactive) | > 100 µM (inactive) | > 100 µM (inactive) | > 100 µM (inactive) | > 100 µM (inactive) | > 100 µM (inactive) | – | – | – |
| CN(C)CCNc1ccc2ncn3c4ccc(O)cc4c(=O)c1c23 | 0.526 µM (active) | 0.317 µM (active) | 1.09 µM (active) | – | 10.6 µM (inactive) | 4.13 µM (inactive) | 1.18 µM (inactive) | 14.2 µM (inactive) | 10.2 µM (inactive) |
| COc1cc(-c2cc(-c3cc([N+](=O)[O-])c(/C=N/NC(=O)c4ccncc4)o3)ccc2OC)ccc1C | – | – | > 100 µM (inactive) | > 100 µM (inactive) | – | > 100 µM (inactive) | – | – | – |
| Nc1nc(S)nc(C(=O)Nc2ccc(Cl)c(Cl)c2)c1-c1ccc(Cl)cc1 | > 100 µM (inactive) | – | > 100 µM (inactive) | > 100 µM (inactive) | > 100 µM (inactive) | > 100 µM (inactive) | – | – | – |
| CS(=O)(=O)OCCN1CCN(C(=O)c2cccc3c(Nc4ccc(S(N)(=O)=O)cc4)c4ccccc4nc23)CC1 | > 42.2 µM (inactive) | > 100 µM (inactive) | > 81.8 µM (inactive) | > 100 µM (inactive) | > 100 µM (inactive) | > 100 µM (inactive) | – | – | – |
| CCc1cc(C)cc2[n+]1CC=C2.[O-][Cl+3]([O-])([O-])[O-] | 10 µM (inactive) | 0.593 µM (active) | 13.8 µM (inactive) | – | 0.0676 µM (active) | 2.56 µM (inactive) | – | – | – |
| CC(=O)OCCc1cccnc1/C=N/O | > 100 µM (inactive) | > 100 µM (inactive) | > 100 µM (inactive) | – | > 100 µM (inactive) | > 100 µM (inactive) | – | – | – |
| CCCN(CCC)C(=O)c1nc(N)nc(-c2ccc(OC)cc2)c1-c1ccc(OC)cc1 | 84.9 µM (inactive) | > 100 µM (inactive) | – | > 100 µM (inactive) | 46.7 µM (inactive) | > 100 µM (inactive) | – | – | – |
| CCOC(=O)C(=O)Nc1nc2c(s1)C(=O)c1ccccc1C2=O | 3.6 µM (inactive) | 19.6 µM (inactive) | 2.49 µM (inactive) | 12.3 µM (inactive) | – | 13.9 µM (inactive) | – | – | – |
| CCOc1ccc(/C=N\N2C(=O)c3ccccc3C2=O)cc1 | > 100 µM (inactive) | > 100 µM (inactive) | > 100 µM (inactive) | > 100 µM (inactive) | > 100 µM (inactive) | > 100 µM (inactive) | – | – | – |
| O=C1NN=CN2C(=O)CCC12 (centres undefined) | > 100 µM (inactive) | > 100 µM (inactive) | > 100 µM (inactive) | > 100 µM (inactive) | – | > 100 µM (inactive) | – | – | – |
| C=CSCCC(N)C(=O)O (centres undefined) | > 100 µM (inactive) | > 100 µM (inactive) | > 100 µM (inactive) | > 100 µM (inactive) | > 100 µM (inactive) | > 100 µM (inactive) | – | – | – |
| CCN(CC)CCCNc1ccc2nc(C)n3c4ccc(O)cc4c(=O)c1c23 | 5.41 µM (inactive) | 0.619 µM (active) | 10.6 µM (inactive) | 3.79 µM (inactive) | 12.4 µM (inactive) | 6.81 µM (inactive) | 7.08 µM (inactive) | 12.1 µM (inactive) | 15.4 µM (inactive) |
| Cc1ccc(/N=C/c2ccc3c(c2)OCO3)cc1C | – | > 100 µM (inactive) | > 100 µM (inactive) | > 100 µM (inactive) | > 100 µM (inactive) | > 100 µM (inactive) | – | – | – |
| CCOC(=O)c1sc2c(C(=O)OCC)n3ccccc3c2c1N | 40.6 µM (inactive) | 53.6 µM (inactive) | > 100 µM (inactive) | – | > 100 µM (inactive) | 25.3 µM (inactive) | – | – | – |
| CC(=O)Nc1ccc(S(=O)(=O)N/N=C/c2cc(I)cc([N+](=O)[O-])c2O)cc1 | 50.8 µM (inactive) | 62.4 µM (inactive) | 66.4 µM (inactive) | > 100 µM (inactive) | 27.7 µM (inactive) | 24.1 µM (inactive) | – | – | – |
